Laboratory results from US20220348590A1, “CYCLOOXYGENASE-2 INHIBITORS AND USES THEREOF” (The Board Institute, Inc., priority 2019, published 2022).
Read-outs that look alike come from different tables or passages of the source.

Molecular target: T1, human recombinant COX2 (hCOX2) (UniProt P35354)
T1 sequence (P35354 1-604): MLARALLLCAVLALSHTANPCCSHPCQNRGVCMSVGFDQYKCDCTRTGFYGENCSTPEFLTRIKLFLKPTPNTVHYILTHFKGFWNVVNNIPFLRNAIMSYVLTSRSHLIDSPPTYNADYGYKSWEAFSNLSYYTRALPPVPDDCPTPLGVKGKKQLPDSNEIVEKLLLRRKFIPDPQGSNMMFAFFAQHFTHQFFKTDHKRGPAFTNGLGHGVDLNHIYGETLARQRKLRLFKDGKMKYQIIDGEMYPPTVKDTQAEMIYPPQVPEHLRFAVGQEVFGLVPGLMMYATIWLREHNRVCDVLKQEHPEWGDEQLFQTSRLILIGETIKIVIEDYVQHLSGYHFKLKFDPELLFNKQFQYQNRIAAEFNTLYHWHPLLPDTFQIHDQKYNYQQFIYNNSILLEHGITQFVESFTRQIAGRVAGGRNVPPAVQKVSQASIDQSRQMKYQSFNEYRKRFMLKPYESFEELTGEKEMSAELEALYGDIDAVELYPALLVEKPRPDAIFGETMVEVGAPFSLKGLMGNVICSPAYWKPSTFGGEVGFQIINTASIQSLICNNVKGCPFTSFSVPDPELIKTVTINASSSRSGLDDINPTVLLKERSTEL
Assay: LCMS-based COX2 enzymatic inhibition assay (PGE2 quantification)
Type: biochemical
Design: COX2 2 minutes pge2/pge2d4 area ratio Avg; other: 2 minutes; readout pge2/pge2d4 area ratio; average; COX2 2 minutes pge2/pge2d4 area ratio Avg; LLE; average LLE; COX2 2 minutes pge2 area (counts) Avg; readout pge2 area (counts); other: 2 min; "ovine COX2 (oCOX2), human recombinant COX2 (hCOX2)"
Conditions: for COX2 2 minutes pge2/pge2d4 area ratio Avg. LLE / COX2 2 minutes pge2 area (counts) Avg. LLE / COX2 10 minutes pge2 area (counts) Avg. LLE: average LLE; for IC50: average
Method in brief: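 PGE2 formed from arachidonic acid (final 5 μM, 2 min) was measured by LC-MS-MS against DMSO controls. Enzyme (oCOX-1 0.1 μg or hCOX2 0.2 μg) with hematin/epinephrine cofactors at pH 8.0 was given 10 min at 37 °C with compound first. Twelve-point curves run three times gave IC50.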

[1] = 2 minutes, readout pge2/pge2d4 area ratio
[2] = 2 minutes, readout pge2/pge2d4 area ratio, read-out: COX2 2 minutes pge2/pge2d4 area ratio Avg. IC50
[3] = 2 minutes, readout pge2 area (counts)
[4] = 2 minutes, readout pge2 area (counts), read-out: COX2 2 minutes pge2 area (counts) Avg. IC50
[5] = 10 minutes, readout pge2 area (counts)
[6] = 10 minutes, readout pge2 area (counts), read-out: COX2 10 minutes pge2 area (counts) Avg. IC50

Structure (SMILES) | COX2 2 minutes pge2/pge2d4 area ratio Avg. LLE [1] | IC50 [2] [nM] | COX2 2 minutes pge2 area (counts) Avg. LLE [3] | IC50 [4] [nM] | COX2 10 minutes pge2 area (counts) Avg. LLE [5] | IC50 [6] [nM]
CS(=O)(=O)c1ccc(-c2cncc(NCc3ccc(F)nc3)n2)cc1 [Compound 208] | 4.4967 | 1340 | 4.501 | 1310 | 5.151 | 357
COc1ncc(-c2ccc(S(C)(=O)=O)cc2)nc1NCc1ccncc1 [Compound 230] | 4.383 | 2380 | 4.367 | 2480 | – | –
CS(=O)(=O)c1ccc(-c2cccc(NCc3ncco3)n2)cc1 [Compound 231] | 3.1763 | 2400 | 3.075 | 2730 | – | –
CS(=O)(=O)c1ccc(-c2cncc(OCc3cccs3)c2)cc1 [Compound 232] | 2.229 | 2410 | 2.107 | 2350 | – | –
CS(=O)(=O)c1ccc(-c2cnnc(NCc3cccs3)c2)cc1 [Compound 233] | 2.958 | 2450 | 2.953 | 3060 | – | –
CS(=O)(=O)c1ccc(-c2cc(OCc3cccs3)cnn2)cc1 [Compound 234] | 3.137 | 2450 | 3.14 | 2420 | – | –
CS(=O)(=O)c1ccc(-c2cc(NCc3ccco3)ccn2)cc1 [Compound 235] | – | 2500 | – | 2150 | – | –
COc1ncc(NCc2ncco2)nc1-c1ccc(S(C)(=O)=O)cc1 [Compound 236] | 4.092 | 2540 | 4.092 | 2500 | – | –
Cn1cc(CNc2cncc(-c3ccc(S(C)(=O)=O)cc3)n2)cn1 [Compound 237] | 4.753 | 2560 | 4.8121 | 2230 | – | –
CS(=O)(=O)c1ccc(-n2ccc3ccc(Nc4cccnc4)nc32)cc1 [Compound 238] | – | 2660 | – | 3280 | – | –
CS(=O)(=O)c1ccc(-c2cc(NCc3ccoc3)ncn2)cc1 [Compound 239] | – | 2740 | – | 3100 | – | –
CS(=O)(=O)c1ccc(-c2cncc(NC34CC5CC(CC(C5)C3)C4)n2)cc1 [Compound 240] | 2.7806 | 2820 | 2.394 | – | 2.9969 | 1310
CS(=O)(=O)c1ccc(-c2cc(NCc3ccoc3)ccn2)cc1 [Compound 242] | – | 3010 | – | – | – | –
CC(C)CN(C)c1cncc(-c2ccc(S(C)(=O)=O)cc2)n1 [Compound 243] | 3.642 | 3120 | 3.739 | 2310 | – | –
CS(=O)(=O)c1ccc(-c2cnc3cnn(Cc4cccs4)c3c2)cc1 [Compound 244] | 1.703 | 3150 | – | – | – | –

Next, values leading:

COX2 2 minutes pge2/pge2d4 area ratio Avg. LLE [1] | IC50 [2] [nM] | COX2 2 minutes pge2 area (counts) Avg. LLE [3] | IC50 [4] [nM] | COX2 10 minutes pge2 area (counts) Avg. LLE [5] | IC50 [6] [nM] | Structure (SMILES)
4.216 | 1150 | 4.434 | 804 | – | – | CS(=O)(=O)c1ccc(-c2cncc(NCc3nccs3)n2)cc1 [Compound 203]
2.522 | 1160 | 2.252 | 2050 | – | – | CS(=O)(=O)c1ccc(-c2ccc3c(n2)N(Cc2cccs2)C(=O)C3)cc1 [Compound 204]
3.07 | 1250 | 3.131 | 1060 | – | – | CS(=O)(=O)c1ccc(-c2cccc([C@@H](O)Cc3cccs3)n2)cc1 [Compound 205]
2.741 | 1270 | 2.638 | 1590 | – | – | CS(=O)(=O)c1ccc(-c2cccc(C(=O)Cc3cccs3)n2)cc1 [Compound 206]
3.8683 | 1320 | 3.915 | 1060 | – | – | CC(=O)c1ncc(-c2ccc(S(C)(=O)=O)cc2)nc1NCc1cccs1 [Compound 207]
2.8514 | 1410 | 2.964 | 1170 | 3.939 | 112 | CS(=O)(=O)c1ccc(-c2cnc3ncn(Cc4cccs4)c3n2)cc1 [Compound 210]
3.18 | 1430 | 3.779 | 1230 | 3.305 | 1640 | CS(=O)(=O)c1ccc(-c2cncc(Oc3ccc(F)cc3)n2)cc1 [Compound 211]
2.9422 | 1470 | 2.889 | 1660 | – | – | CS(=O)(=O)c1ccc(-c2cncc(OCc3ccc(Cl)o3)n2)cc1 [Compound 212]
4.567 | 1500 | 4.663 | 1320 | – | – | CS(=O)(=O)c1ccc(-c2cncc(SCc3cnoc3)n2)cc1 [Compound 213]
– | 1510 | – | 1190 | – | – | CO/N=C(/c1ccc2ccn(-c3ccc(S(C)(=O)=O)cc3)c2n1)c1cccs1 [Compound 214]
4.859 | 1530 | 4.845 | 1580 | – | – | CS(=O)(=O)c1ccc(-c2cncc(NCc3cnco3)n2)cc1 [Compound 215]
3.544 | 1540 | 3.646 | 1220 | – | – | CS(=O)(=O)c1ccc(-c2cccc(NCc3cnco3)n2)cc1 [Compound 216]
3.66 | 1540 | 3.522 | 2240 | – | – | CS(=O)(=O)c1ccc(-c2cncc(SCc3ncco3)n2)cc1 [Compound 217]
4.686 | 1630 | 4.669 | 1690 | – | – | CS(=O)(=O)c1ccc(-c2cnc(C(N)=O)c(NCc3cccs3)n2)cc1 [Compound 219]
3.784 | 1670 | 3.69 | 2090 | – | – | CS(=O)(=O)c1ccc(-c2cc(NCc3cccs3)cnn2)cc1 [Compound 220]
4.887 | 1690 | 4.735 | 2690 | 4.836 | 1960 | CS(=O)(=O)c1ccc(-c2cncc(NCc3ccc(F)cn3)n2)cc1 [Compound 221]
2.992 | 1860 | 2.918 | 2240 | – | – | CS(=O)(=O)c1ccc(-c2cncc(/C=C/c3cccs3)n2)cc1 [Compound 223]
4.828 | 1940 | 4.821 | 1840 | – | – | CS(=O)(=O)c1ccc(-c2cncc(NC[C@@H]3CCCO3)n2)cc1 [Compound 224]
3.328 | 2000 | 3.249 | 2400 | – | – | CS(=O)(=O)c1ccc(-c2cncc(CCc3cccs3)n2)cc1 [Compound 225]
3.47 | 2040 | 3.565 | 1790 | – | – | CS(=O)(=O)c1ccc(-c2cncc(SCc3cnco3)n2)cc1 [Compound 226]
4.384 | 2060 | 4.493 | 1600 | – | – | COc1ncc(NCc2cnco2)nc1-c1ccc(S(C)(=O)=O)cc1 [Compound 227]
4.528 | 2120 | 4.5985 | 1800 | – | – | COc1ncc(NCc2ccccn2)nc1-c1ccc(S(C)(=O)=O)cc1 [Compound 228]
